“Also recorded” adds a separate entry of the source.
How the values were obtained:
[1] = Clinical trial for treatment of depression: rates of urinary tract infection and urinary retention; type: in vivo, human; conditions: oral tablets 0.1, 0.5, 2 or 4 mg BID
Description: FIG. 24 is a table showing rates of urinary tract infection (UTI) and urinary retention in human patients administered dexmecamylamine in a yet unpublished clinical trial for treatment of depression. Patients received orally administered dexmecamylamine tablets of 0.1 mg, 0.5 mg, 2 mg or 4 mg BID (twice daily). At the end of the trial period, the patients were evaluated and the rates of side effects, including urinary tract infection (UTI) and urinary retention, were recorded.

[2] = Mouse carcinogenicity studies; type: in vivo; conditions: much higher doses and concentrations than in the clinical program
Description: Further, the Summary Basis of Approval for Detrol® indicates similar (lower rates) of bladder dilatation, as is noted in dexmecamylamine's carcinogenicity studies. Urinary retention, and concomitant urinary tract infection, is not anticipated to be a therapy-limiting side effect for relatively low doses and concentrations of dexmecamylamine (FIG. 24).

[3] = molecular target: NMDA receptor NR1a-NR2A (Homo sapiens, UniProt Q05586+Q12879); assay: Glutamate-evoked currents at NR1a-NR2A receptors in Xenopus oocytes (two electrode voltage-clamp); type: cell-based
Description: (§1) All experiments were carried out at receptors expressed in Xenopus oocytes using the method of cDNA expression. Currents evoked by glutamate were recorded using the standard two electrode voltage-clamp configuration (TVEC). Xenopus oocytes were prepared and injected using standard procedures.
Briefly, ovaries are harvested from Xenopus Laevis females that have been deeply anesthetized and pithed following the animal rights rule from the Geneva canton. A small piece of ovary is isolated for immediate preparation while the remaining part is placed at 4° C. in a sterile Barth solution containing in mM NaCl 88, KCl 1, NaHCO3 2.4, HEPES 10, MgSO4.7H2O 0.82, Ca(NO3)2.4H2O 0.33, CaCl2.6H2O 0.41, at pH 7.4, and supplemented with 20 μg/ml of kanamycine, 100 unit/ml penicillin and 100 μg/ml streptomycin. On the second day following dissociation, oocytes are injected with 2 ng of cDNA per oocyte containing the NR1a-NR2A or NR1a-NR2B using an automated injector (Hogg et al., J. Neurosci. Methods, 2008). […] Cells were held at −80 mV. Data were filtered at 10 Hz, captured at 100 Hz and analyzed using HiQ proprietary data acquisition and analysis software running under Matlab (Mathworks Inc.).
Oocytes expressing the NR1a-NR2A or NR1a-NR2B receptors were challenged at periodic intervals with a glutamate test pulse. Test drug was then applied during a sustained period and its effects monitored by measuring the amplitude and time course of the glutamate evoked currents.
Experiments were carried out with the NR1a-NR2A and NR1a-NR2B at least in triplicate. Positive reference compounds (ketamine and MK-801) were tested using the same protocol.
(§2) To further evaluate effects of TC-5214, experiments using sustained exposure to this compound followed by a recovery period were carried out at NR1a-NR2A and NR1a-NR2B receptors. Measurements were made with (nM) 0, 3, 10, 30, 100, 300, TC-5214 and recovery monitored during 10 minutes. In addition, the same experimental protocol will be used with cells in control conditions to assess the stability of the measurements. Effects were measured in at least three cells.
A use-dependent protocol was used to identify non-competitive inhibition of the receptors. Cells expressing the NMDA receptors were tested for their sensitivity to TC-5214 at 30 nM, using the same protocol as described above. Cells from the same batch were tested in parallel using the same incubation time with an identical concentration of TC-5214 (30 nM) but in absence of pulses during the incubation time with the compound. Two glutamate pulses were applied at the end of the incubation time, and recovery monitored as for the control conditions.

[4] = tested on: bladder function in anesthetized rats; assay: Intravesical model in anesthetized rats (increased bladder contraction frequency), cystometry; type: in vivo, rat; conditions: 1 μM and 10 μM intravesical infusion
Description: Female Sprague Dawley rats (200-290 g) from Charles River France, housed in 3-4 rats per cage were anesthetized with urethane (1.2 g/kg) s.c., 3 mL/kg). A polyethylene catheter was implanted into the bladder through the dome. Ureters were tied and cut. Intravesical infusion periods with saline followed by an intravesical infusion period with one of the test compounds, hexamethonium (10 μM) or dexmecamylamine (1 and 10 μM), are depicted in FIG. 7.
The intravesical anesthetized rat model is a model of increased bladder contraction frequency. The model is a “simplified” well established model used to evaluate OAB agents, recognizing that there are decreased inputs from cortical centers. This is the first known experiment using the intravesical anesthetized rat model of increased bladder contraction frequency to test dexmecamylamine for potential efficacy in treating OAB.

[5] = molecular target: T1, α6-containing nicotinic receptors (Homo sapiens, UniProt Q15825); assay: α6-containing nicotinic receptors expressed in oocytes, stimulated with acetylcholine; type: cell-based; conditions: acetylcholine alone or with increasing concentrations
T1 construct: expressed in transfected cells; host or cells: oocytes

[6] = molecular target: NMDA receptor NR1a-NR2B (Homo sapiens, UniProt Q05586+Q13224); assay: Glutamate-evoked currents at NR1a-NR2B receptors in Xenopus oocytes (two electrode voltage-clamp); type: cell-based
Description: as §1
Briefly, ovaries are harvested from Xenopus Laevis females that have been deeply anesthetized and pithed following the animal rights rule from the Geneva canton. […] Data were filtered at 10 Hz, captured at 100 Hz and analyzed using HiQ proprietary data acquisition and analysis software running under Matlab (Mathworks Inc.).
Oocytes expressing the NR1a-NR2A or NR1a-NR2B receptors were challenged at periodic intervals with a glutamate test pulse. Test drug was then applied during a sustained period and its effects monitored by measuring the amplitude and time course of the glutamate evoked currents. […]
as §2, with “In addition, the same experimental protocol will be used with cells in control conditions to assess the stability of the measurements.” left out, “cells. […]” for “cells.”

[7] = type: in vivo, human
Description: More recently, dexmecamylamine was evaluated as adjunctive therapy in the treatment of major depressive disorder (MDD) in a large international Phase 3 depression program. […] More than 2400 subjects have received dexmecamylamine in double-blind or open-label studies.
No safety studies using dexmecamylamine have been performed in OAB. Phase 2 and Phase 3 clinical studies using dexmecamylamine in Major Depressive Disorder (MDD) have been conducted and completed. […] Briefly, in the fixed dose Phase 3 studies in MDD, at doses of 2 mg BID (the maximum doses to be studied in the OAB study), the most frequent treatment emergent adverse events that were reported more than 2% more commonly in the dexmecamylamine group compared to placebo group were: constipation (15.2% dexmecamylamine vs. 3.8% placebo); and dry mouth (7.0% dexmecamylamine vs. 1.3% placebo).

[8] = 3, 10, 30, 100, 300 nM, Glutamate 10 μM-Glycine 1 μM

Chain of NMDA receptor NR1a-NR2A (Q12879 23-1464, other chains not shown): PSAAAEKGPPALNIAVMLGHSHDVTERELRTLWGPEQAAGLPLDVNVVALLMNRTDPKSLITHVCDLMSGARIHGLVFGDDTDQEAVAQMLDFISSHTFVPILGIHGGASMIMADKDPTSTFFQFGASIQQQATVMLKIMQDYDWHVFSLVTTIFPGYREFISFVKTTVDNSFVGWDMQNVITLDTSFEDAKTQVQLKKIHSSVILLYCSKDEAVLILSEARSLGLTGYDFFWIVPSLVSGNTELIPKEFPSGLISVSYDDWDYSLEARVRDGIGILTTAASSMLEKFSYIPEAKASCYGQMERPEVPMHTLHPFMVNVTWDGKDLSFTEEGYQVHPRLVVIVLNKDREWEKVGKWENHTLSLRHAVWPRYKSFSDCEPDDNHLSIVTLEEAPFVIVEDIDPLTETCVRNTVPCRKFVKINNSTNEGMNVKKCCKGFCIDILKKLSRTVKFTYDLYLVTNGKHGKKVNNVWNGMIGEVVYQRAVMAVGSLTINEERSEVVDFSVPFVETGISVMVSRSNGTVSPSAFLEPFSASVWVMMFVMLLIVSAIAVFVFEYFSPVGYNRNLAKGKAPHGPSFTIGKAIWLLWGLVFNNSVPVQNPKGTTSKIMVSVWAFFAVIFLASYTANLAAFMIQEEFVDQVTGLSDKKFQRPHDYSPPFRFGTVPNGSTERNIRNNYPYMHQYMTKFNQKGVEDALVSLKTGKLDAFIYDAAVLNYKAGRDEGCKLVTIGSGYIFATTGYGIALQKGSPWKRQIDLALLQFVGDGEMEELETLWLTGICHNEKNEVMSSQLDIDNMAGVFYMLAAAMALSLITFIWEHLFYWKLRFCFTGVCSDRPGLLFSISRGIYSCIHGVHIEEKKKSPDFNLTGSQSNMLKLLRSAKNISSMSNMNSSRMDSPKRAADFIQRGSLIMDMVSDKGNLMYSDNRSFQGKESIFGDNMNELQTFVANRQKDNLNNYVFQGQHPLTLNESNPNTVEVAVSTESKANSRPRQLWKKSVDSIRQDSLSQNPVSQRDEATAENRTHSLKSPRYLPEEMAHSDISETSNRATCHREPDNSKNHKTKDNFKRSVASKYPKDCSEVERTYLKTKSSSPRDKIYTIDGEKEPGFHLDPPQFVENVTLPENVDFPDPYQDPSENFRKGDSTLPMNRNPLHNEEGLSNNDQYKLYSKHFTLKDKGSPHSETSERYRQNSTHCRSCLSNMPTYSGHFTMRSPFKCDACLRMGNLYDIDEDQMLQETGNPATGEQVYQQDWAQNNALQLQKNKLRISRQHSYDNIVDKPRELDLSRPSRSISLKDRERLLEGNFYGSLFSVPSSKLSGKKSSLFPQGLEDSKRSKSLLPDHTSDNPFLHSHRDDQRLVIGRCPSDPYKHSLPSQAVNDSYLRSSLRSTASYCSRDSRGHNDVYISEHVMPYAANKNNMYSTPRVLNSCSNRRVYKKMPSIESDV
Chain of NMDA receptor NR1a-NR2B (Q13224 27-1484, other chains not shown): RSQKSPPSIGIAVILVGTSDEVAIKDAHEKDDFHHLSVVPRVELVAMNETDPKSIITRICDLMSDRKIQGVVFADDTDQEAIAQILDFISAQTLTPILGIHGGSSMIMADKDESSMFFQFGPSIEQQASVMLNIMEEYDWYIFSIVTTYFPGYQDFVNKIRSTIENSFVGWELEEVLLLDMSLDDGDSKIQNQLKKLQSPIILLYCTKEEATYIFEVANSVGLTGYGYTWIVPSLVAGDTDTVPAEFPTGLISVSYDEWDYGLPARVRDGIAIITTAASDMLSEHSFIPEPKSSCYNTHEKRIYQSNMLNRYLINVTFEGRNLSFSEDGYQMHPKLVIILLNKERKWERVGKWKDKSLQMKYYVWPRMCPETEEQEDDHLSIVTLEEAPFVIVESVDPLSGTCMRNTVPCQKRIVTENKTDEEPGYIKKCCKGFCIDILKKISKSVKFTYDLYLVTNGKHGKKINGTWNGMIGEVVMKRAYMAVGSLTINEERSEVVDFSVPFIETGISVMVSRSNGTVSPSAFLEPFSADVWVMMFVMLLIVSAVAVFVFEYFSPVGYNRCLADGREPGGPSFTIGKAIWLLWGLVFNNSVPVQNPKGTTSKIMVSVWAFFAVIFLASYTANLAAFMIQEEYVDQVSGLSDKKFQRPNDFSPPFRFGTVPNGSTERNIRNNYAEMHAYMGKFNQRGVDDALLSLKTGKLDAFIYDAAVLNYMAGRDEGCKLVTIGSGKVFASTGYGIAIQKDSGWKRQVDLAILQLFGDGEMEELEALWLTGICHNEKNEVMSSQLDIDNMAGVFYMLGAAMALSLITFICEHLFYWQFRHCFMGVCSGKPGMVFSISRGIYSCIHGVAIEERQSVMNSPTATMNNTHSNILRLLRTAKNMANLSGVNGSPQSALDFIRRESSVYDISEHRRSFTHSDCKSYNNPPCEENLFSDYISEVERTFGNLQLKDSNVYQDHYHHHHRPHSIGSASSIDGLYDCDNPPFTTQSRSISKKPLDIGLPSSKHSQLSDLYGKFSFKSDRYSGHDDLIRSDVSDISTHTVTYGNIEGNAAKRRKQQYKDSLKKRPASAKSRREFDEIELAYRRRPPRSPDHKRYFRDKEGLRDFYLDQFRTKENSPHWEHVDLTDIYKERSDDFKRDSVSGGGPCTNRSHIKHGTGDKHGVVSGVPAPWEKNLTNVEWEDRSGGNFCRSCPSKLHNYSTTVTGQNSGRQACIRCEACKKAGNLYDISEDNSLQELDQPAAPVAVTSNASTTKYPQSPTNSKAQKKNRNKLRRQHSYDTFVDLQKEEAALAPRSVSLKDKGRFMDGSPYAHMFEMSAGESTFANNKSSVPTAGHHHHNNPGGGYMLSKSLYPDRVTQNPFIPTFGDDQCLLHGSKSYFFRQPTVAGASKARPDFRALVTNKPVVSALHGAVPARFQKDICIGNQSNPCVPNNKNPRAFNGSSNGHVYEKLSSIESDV
T1 sequence (Q15825 26-494): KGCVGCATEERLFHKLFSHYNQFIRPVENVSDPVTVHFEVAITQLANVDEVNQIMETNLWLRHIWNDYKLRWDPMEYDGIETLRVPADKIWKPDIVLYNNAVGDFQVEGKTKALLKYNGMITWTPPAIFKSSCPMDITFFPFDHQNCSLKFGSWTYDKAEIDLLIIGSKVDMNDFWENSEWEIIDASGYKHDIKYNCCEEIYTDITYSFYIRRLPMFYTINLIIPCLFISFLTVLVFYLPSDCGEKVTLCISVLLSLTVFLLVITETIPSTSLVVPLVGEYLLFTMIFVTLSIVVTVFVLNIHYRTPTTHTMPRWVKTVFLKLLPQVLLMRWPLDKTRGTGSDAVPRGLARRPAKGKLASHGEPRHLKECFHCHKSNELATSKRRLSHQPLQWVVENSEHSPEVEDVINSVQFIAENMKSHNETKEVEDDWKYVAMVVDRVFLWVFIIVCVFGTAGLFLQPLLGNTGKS

In the case of `CNC1(C)[C@H]2CCC(C2)C1(C)C` (stereo partly drawn) [TC-5214, (S)—N,2,3,3-tetramethylnorbornan-2-amine], the “side effects due to urinary retention” value [1] is reported as “without therapy-limiting side effects due to urinary retention”, the urinary retention [2] is reported as “urinary retention was noted” and the “extent of inhibition over concentration range (FIG. 22)” value [3, 8] is reported as “complete inhibition”. The “concentration at which it potently inhibits” value ([3]; FIG. 23 legend) was 10 to 30 nM, the recovery following wash-out ([3]; after sustained exposure) was “clear evidence for recovery” and the “bladder capacity (BC)” value [4] was “statistically significant increase”. The “inter-contraction interval (ICI)” value [4] was “statistically significant increase”, the “micturition frequency (MF)” value [4] was “statistically significant decrease” and the “bladder contraction amplitude (AM)” value ([4]; listed as dexmecamylamine) was “no significant decrease; also recorded: no significant change”. The “sensitivity of α6-containing nicotinic receptors” value [5] was “sensitive”, the “extent of inhibition over concentration range (FIG. 22)” value [6, 8] was “partial inhibition” and the “concentration at which it potently inhibits” value ([6]; FIG. 23 legend) was 10 to 30 nM. The “efficacy in the treatment of depression” value ([7]; adjunctive therapy, Phase 3 program) was “failed to demonstrate efficacy”, the “vital signs, blood or urine laboratory measurements, ECG conduction intervals, suicidality” value ([7]; human, in vivo) was “no noteworthy differences” and the NOEL (30 days oral) was 1 mg/kg/day. For the same compound, the “mortality and histopathologic changes” value (doses up to and including 50 mg/kg/day) was “did not produce any mortalities nor any histopathologic changes”.
